Results reported in the supplement of paper PMC11061612.

What was measured:
Experiment in all cases: combination Emax (second highest fraction inhibited in the dose matrix, 72 h); higher = more inhibition; extreme values may be limits of the assay
[1] = test system: 697 (B-Lymphoblastic Leukemia)
In short: (§1)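 Bliss excess equals the observed combination effect minus the expected value EA + EB − EA·EB, where EA and EB are the effects of each agent alone. Combination Emax is the second-highest inhibition within the matrix. Inhibition was scaled from CellTiter-Glo 2.0 luminescence, with 0 set by vehicle wells and 1 by blank wells, after 72 hours of two-drug dosing of cells plated in 1536-well plates.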

[2] = test system: C3A (Hepatocellular Carcinoma)
In short: as §1

[3] = test system: DOV13 (Ovarian Carcinoma)
In short: as §1

[4] = test system: JiyoyeP-2003 (Burkitt's Lymphoma)
In short: as §1

[5] = test system: KARPAS-1106P (B-Cell Non-Hodgkin's Lymphoma)
In short: as §1

[6] = test system: KATOIII (Gastric Carcinoma)
In short: as §1

[7] = test system: LS-513 (Colorectal Carcinoma)
In short: as §1

[8] = test system: MDA-MB-157 (Breast Carcinoma)
In short: as §1

[9] = test system: MFH-ino (Other Solid Carcinomas)
In short: as §1

[10] = test system: NCI-H1299 (Non-Small Cell Lung Carcinoma)
In short: as §1

[11] = test system: NCI-H1694 (Small Cell Lung Carcinoma)
In short: as §1

[12] = test system: NCI-H1793 (Lung Adenocarcinoma)
In short: as §1

SK-N-FI (Neuroblastoma) = test system: SK-N-FI (Neuroblastoma)
In short: as §1

SN12C (Kidney Carcinoma) = test system: SN12C (Kidney Carcinoma)
In short: as §1

[13] = test system: SW1088 (Low Grade Glioma)
In short: as §1

[14] = test system: SW1783 (Low Grade Glioma)
In short: as §1

[15] = test system: SW1990 (Pancreatic Carcinoma)
In short: as §1

[16] = test system: SW756 (Cervical Carcinoma)
In short: as §1

[17] = test system: SW780 (Bladder Carcinoma)
In short: as §1

[18] = test system: TE-5 (Esophageal Squamous Cell Carcinoma)
In short: as §1

Structure (SMILES)	combination Emax [1]	combination Emax [2]	combination Emax [3]	combination Emax [4]	combination Emax [5]	combination Emax [6]	combination Emax [7]	combination Emax [8]	combination Emax [9]	combination Emax [10]	combination Emax [11]	combination Emax [12]	combination Emax (SK-N-FI (Neuroblastoma))	combination Emax (SN12C (Kidney Carcinoma))	combination Emax [13]	combination Emax [14]	combination Emax [15]	combination Emax [16]	combination Emax [17]	combination Emax [18]
CC1(C)CCC(CN2CCN(c3ccc(C(=O)NS(=O)(=O)c4ccc(NCC5CCOCC5)c([N+](=O)[O-])c4)c(Oc4cnc5[nH]ccc5c4)c3)CC2)=C(c2ccc(Cl)cc2)C1 [Venetoclax] + C[C@@H]1COCCN1C2=NC(=NC(=C2)C3(CC3)[S@](=N)(=O)C)C4=C5C=CNC5=NC=C4 [AZD6738] (first compound max 1 µM, 7x7, partner max 10 µM)	1	0.452	0.91	0.954	0.688	0.462	0.677	0.886	0.5	0.534	0.822	0.508	0.766	0.287	0.684	0.503	0.666	0.325	0.22	0.593
CC1(C)CCC(CN2CCN(c3ccc(C(=O)NS(=O)(=O)c4ccc(NCC5CCOCC5)c([N+](=O)[O-])c4)c(Oc4cnc5[nH]ccc5c4)c3)CC2)=C(c2ccc(Cl)cc2)C1 [Venetoclax] + C[C@@H](Nc1cc(F)cc(F)c1)c1cc(C(=O)N(C)C)cc2c(=O)cc(N3CCOCC3)oc12 [AZD8186] (first compound max 1 µM, 7x7, partner max 3 µM)	0.986	0.296	0.306	0.527	0.796	0.142	0.491	0.546	0.0981	0.149	0.376	0.221	0.243	0.174	0.493	0.336	0.452	0.117	0.163	0.375
CC1(C)CCC(CN2CCN(c3ccc(C(=O)NS(=O)(=O)c4ccc(NCC5CCOCC5)c([N+](=O)[O-])c4)c(Oc4cnc5[nH]ccc5c4)c3)CC2)=C(c2ccc(Cl)cc2)C1 [Venetoclax] + Cc1cc2ncnn2cc1Nc1ncc2c(n1)n(C1CCOCC1)c(=O)n2C [AZD7648] (first compound max 1 µM, 7x7, partner max 10 µM)	0.983	0.212	0.476	0.317	0.458	0.214	0.192	0.571	0.318	0.224	0.223	0.41	0.262	0.218	0.341	0.237	0.572	0.195	0.163	0.284
CC1(C)CCC(CN2CCN(c3ccc(C(=O)NS(=O)(=O)c4ccc(NCC5CCOCC5)c([N+](=O)[O-])c4)c(Oc4cnc5[nH]ccc5c4)c3)CC2)=C(c2ccc(Cl)cc2)C1 [Venetoclax] + Cn1cnc2c(F)c(Nc3ccc(Br)cc3Cl)c(C(=O)NOCCO)cc21 [Selumetinib] (first compound max 1 µM, 7x7, partner max 3 µM)	1	0.434	0.157	0.304	0.476	0.186	0.717	0.546	0.201	0.202	0.324	0.199	0.471	0.206	0.146	0.124	0.49	0.225	0.227	0.107
